Laboratory results from patent US20260317370A1, “METHOD OF DEPROTECTING AT LEAST ONE D-AMINO ACID AND/OR D-AMINO ACID DERIVATIVE PROTECTED FUNCTIONAL GROUP” (Martin-Luther-Universität Halle-Wittenberg, priority 2023, published 2026).
Where a name gives a salt, the structure may show the parent alone.

Tests used:
Assay in all cases: additive influence on activity of D-stereospecific hydrolytic enzyme
Assay type in all cases: biochemical
Settings in all cases: role: inhibitor (additive); substrate Abz-AAfFAAK(DNP)-OH
[1] = target: T1, D-stereospecific hydrolytic enzyme, SEQ ID No. 9 (Bacillus thuringiensis, UniProt A0A1W6WP87)
T1 construct: E. coli, purified
T1 sequence (A0A1W6WP87 38-388): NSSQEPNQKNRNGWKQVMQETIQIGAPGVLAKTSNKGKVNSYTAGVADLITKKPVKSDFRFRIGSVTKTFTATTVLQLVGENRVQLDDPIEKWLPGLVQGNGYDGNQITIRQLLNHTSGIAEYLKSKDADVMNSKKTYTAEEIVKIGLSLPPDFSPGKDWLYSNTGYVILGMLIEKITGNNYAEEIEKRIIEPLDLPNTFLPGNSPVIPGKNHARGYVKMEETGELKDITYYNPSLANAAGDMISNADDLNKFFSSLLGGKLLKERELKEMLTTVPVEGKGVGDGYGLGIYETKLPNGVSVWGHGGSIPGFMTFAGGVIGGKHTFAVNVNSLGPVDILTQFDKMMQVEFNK
Procedure: (§1) In further experiments, the hydrolysis reaction using D-stereospecific hydrolytic enzymes with SEQ ID No. 4, No. 6, No. 7, No. 8, No. 9 was carried out with internally quenched fluorogenic substrates (IQFS) (Abz-AAX/xaaFAAK(DNP)-OH) (Abz=2-aminobenzoic acid, DNP=2,4-dinitrophenol). By cleavage of the IQFS, a fluorescence signal is released and can be monitored by continuous fluorescence measurement (0.1 M NaPi, pH 8.0, 1% DMSO (v/v), 5-1000 nM enzyme, excitation wavelength 320 nm emission wavelength 420 nm, reaction volume 100 μl, 96-well micro titer plate, time scale 2 h). The respective model reaction is shown below (Formula 5). In Formula 5 DHy represents the respective D-stereospecific hydrolytic enzyme.
(§2) In addition, experiments were performed to investigate the effect of adding different additives in different concentrations based on the reaction mixture on the activity of D-stereospecific hydrolytic enzymes. The concentration of the respective additive was varied between 0 to 2.5 M. As additives, urea, guanidinium hydrochloride, NaCl and ß-mercaptoethanol (ß-ME) were used. The additives were added to the reaction mixture including the D-stereospecific hydrolytic enzyme and the peptide Abz-AAfFAAK(DNP)-OH. As D-stereospecific hydrolytic enzymes the D-stereospecific hydrolytic enzymes with SEQ ID No. 4, No. 6, No. 7, No. 8 and No. 9 were used.
(§3) The relative activity, in this case, is calculated by dividing the activity when adding an additive with a different concentration by the maximum activity of the respective D-stereospecific enzyme.
(§4) In Table 11, the concentration of additive (M) based on the reaction mixture at which 50% (*) or 10% (**) of the relative specific activity of the respective enzyme is still present is indicated.

[2] = target: T2, D-stereospecific hydrolytic enzyme, SEQ ID No. 6 (Bacillus thuringiensis, UniProt A0A1W6WPG2)
T2 construct: E. coli, purified; crystallized, P21
T2 sequence (A0A1W6WPG2 40-385): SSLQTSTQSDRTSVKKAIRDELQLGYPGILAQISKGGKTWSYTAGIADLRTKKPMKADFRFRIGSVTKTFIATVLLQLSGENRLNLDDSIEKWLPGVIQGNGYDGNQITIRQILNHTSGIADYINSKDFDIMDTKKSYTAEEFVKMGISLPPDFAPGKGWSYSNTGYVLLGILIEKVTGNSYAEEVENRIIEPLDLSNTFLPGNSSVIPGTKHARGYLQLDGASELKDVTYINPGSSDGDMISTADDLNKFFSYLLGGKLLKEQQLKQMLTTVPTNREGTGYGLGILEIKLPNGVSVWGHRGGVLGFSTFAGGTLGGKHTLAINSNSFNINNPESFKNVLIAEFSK
Procedure: as §1, §2, §3, §4

[3] = target: T3, D-stereospecific hydrolytic enzyme, SEQ ID No. 4 (Bacillus cereus, UniProt P94288)
T3 construct: initiator Met form is 4A; E. coli, purified by ion exchange and gel filtration
T3 sequence (P94288 entry or part of it): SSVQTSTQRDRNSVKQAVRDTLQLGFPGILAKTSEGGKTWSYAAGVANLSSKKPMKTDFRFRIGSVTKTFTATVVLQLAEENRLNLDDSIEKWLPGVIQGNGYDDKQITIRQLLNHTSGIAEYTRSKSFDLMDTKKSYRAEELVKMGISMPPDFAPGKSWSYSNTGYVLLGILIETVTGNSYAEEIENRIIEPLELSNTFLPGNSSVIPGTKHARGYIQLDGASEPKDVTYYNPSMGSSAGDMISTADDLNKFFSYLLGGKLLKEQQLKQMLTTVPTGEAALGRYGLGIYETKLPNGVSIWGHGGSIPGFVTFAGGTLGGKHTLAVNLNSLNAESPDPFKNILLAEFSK
Procedure: as §1, §2, §3, §4

[4] = target: T4, D-stereospecific hydrolytic enzyme, SEQ ID No. 8 (Bacillus thuringiensis, UniProt A0A1W6WYC6)
T4 construct: E. coli, purified
T4 sequence (A0A1W6WYC6 40-389): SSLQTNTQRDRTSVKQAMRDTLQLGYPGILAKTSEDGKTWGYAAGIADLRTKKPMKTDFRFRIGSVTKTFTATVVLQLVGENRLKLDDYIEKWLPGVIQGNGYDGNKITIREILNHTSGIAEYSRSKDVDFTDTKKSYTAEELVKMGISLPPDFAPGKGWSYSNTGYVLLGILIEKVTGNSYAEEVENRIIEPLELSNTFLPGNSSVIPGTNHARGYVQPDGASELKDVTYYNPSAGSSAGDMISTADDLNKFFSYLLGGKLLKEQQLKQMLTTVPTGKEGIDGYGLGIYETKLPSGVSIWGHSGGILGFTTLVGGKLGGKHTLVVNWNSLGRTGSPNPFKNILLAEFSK
Procedure: as §1, §2, §3, §4

[5] = target: T5, D-stereospecific hydrolytic enzyme, SEQ ID No. 7 (Bacillus thuringiensis, UniProt A0A1W6WPK6)
T5 construct: E. coli, purified
T5 sequence (A0A1W6WPK6 41-389): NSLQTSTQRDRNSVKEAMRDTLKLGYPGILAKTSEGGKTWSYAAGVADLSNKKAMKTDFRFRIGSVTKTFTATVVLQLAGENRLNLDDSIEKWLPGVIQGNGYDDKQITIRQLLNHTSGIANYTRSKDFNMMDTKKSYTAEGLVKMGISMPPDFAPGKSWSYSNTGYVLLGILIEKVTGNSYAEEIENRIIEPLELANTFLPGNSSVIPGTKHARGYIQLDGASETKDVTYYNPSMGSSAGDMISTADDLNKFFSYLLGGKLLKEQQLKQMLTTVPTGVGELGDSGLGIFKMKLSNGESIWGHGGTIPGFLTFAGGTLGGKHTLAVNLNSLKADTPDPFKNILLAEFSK
Procedure: as §1, §2, §3, §4

SMILES | concentration of additive at which 10% of the relative specific activity is still present [1] | concentration of additive at which 10% of the relative specific activity is still present [2] | concentration of additive at which 10% of the relative specific activity is still present [3] | concentration of additive at which 10% of the relative specific activity is still present [4] | concentration of additive at which 10% of the relative specific activity is still present [5]
NC(N)=O [urea] | 2.25 M | 2.00 M | 1.25 M | 2.00 M | 1.50 M
N=C(N)N [GdmCl, guanidinium hydrochloride] | 1.25 M | 0.50 M | 1.00 M | 1.00 M | 0.50 M
OCCS [β-ME, ß-mercaptoethanol] | 0.50 M | 0.50 M | <0.25 M | 0.50 M | 0.50 M
